Measured values taken from PubChem BioAssay (NCI).
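Cells were grown in 96-well plates and exposed to each compound for 48 hours at five concentrations; endpoints were interpolated linearly between bracketing concentrations, or set to the highest concentration if not reached. TGI is the concentration that stops growth completely.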

Experiments:
Assay in all cases: growth of human tumour cells (NCI), 48 h
OVCAR-8 ovarian = test system: OVCAR-8 ovarian
HL-60(TB) leukemia = test system: HL-60(TB) leukemia
HT29 colon = test system: HT29 colon
CAKI-1 renal = test system: CAKI-1 renal
UACC-62 melanoma = test system: UACC-62 melanoma
SK-MEL-28 melanoma = test system: SK-MEL-28 melanoma
SK-MEL-5 melanoma = test system: SK-MEL-5 melanoma
SF-539 CNS = test system: SF-539 CNS
NCI-H522 lung = test system: NCI-H522 lung
CCRF-CEM leukemia = test system: CCRF-CEM leukemia
NCI-H460 lung = test system: NCI-H460 lung

Compound | TGI (OVCAR-8 ovarian) [µM] | TGI (HL-60(TB) leukemia) [µM] | TGI (HT29 colon) [µM] | TGI (CAKI-1 renal) [µM] | TGI (UACC-62 melanoma) [µM] | TGI (SK-MEL-28 melanoma) [µM] | TGI (SK-MEL-5 melanoma) [µM] | TGI (SF-539 CNS) [µM] | TGI (NCI-H522 lung) [µM] | TGI (CCRF-CEM leukemia) [µM] | TGI (NCI-H460 lung) [µM]
O=C(O)Cc1ccc(Oc2nc3ccccc3nc2C(=O)O)cc1 | > 100 | > 100 | > 100 | > 100 | > 100 | > 100 | > 100 | > 100 | > 100 | > 100 | > 100
COc1ccc2c(c1)/C(=C\c1c(C)nc3sc(C)cn13)C(=O)N2 | 41.6 | 3.63 | 7.83 | > 100 | 97.9 | > 100 | 4.62 | 9.58 | 1.53 | 2.32 | 16.5
CC(C)(C)c1cc2c(O)c(c1)Cc1cc(C(C#N)(Cc3ccc4ccccc4c3)Cc3ccc4ccccc4c3)cc(c1O)Cc1cc(C(C)(C)C)cc(c1O)Cc1cc(C(C#N)(Cc3ccc4ccccc4c3)Cc3ccc4ccccc4c3)cc(c1O)C2 | > 100 | > 100 | > 100 | > 100 | > 100 | > 100 | > 100 | > 100 | > 100 | > 100 | > 100
N#CC(=C1CCCCC1)c1nc2ccccc2o1 | > 100 | 75 | > 100 | > 100 | > 100 | > 100 | > 100 | 64.4 | 60.6 | > 100 | > 100
Cc1cccc(CC(Cc2c(C)cccc2C(=O)O)C(=O)O)c1 (configuration not stated) | > 100 | > 100 | > 100 | > 100 | 10.6 | > 100 | 37.2 | > 100 | > 100 | > 100 | > 100
O=C(O)CS | – | > 100 | > 100 | > 100 | > 100 | > 100 | > 100 | > 100 | > 100 | > 100 | > 100
Cn1c(-c2cccs2)cc(-c2cccs2)c1-c1ccco1 | > 100 | > 75.7 | > 100 | > 38.1 | > 100 | > 100 | > 100 | > 100 | 88.2 | > 100 | > 100
Cc1ccc(S(=O)(=O)N2C[C@](O)(c3ccccc3)[C@H]2C)cc1 | > 100 | > 100 | > 100 | > 100 | > 100 | > 100 | > 100 | > 100 | > 100 | > 100 | > 100
Cc1ccc2c(n1)C(=O)C=CC2=O | 33.7 | > 22.5 | 38 | 4.54 | 29.2 | 15.3 | 29.4 | 35.3 | 3.51 | > 22.4 | 36.2
CCOC(=O)Cc1csc2[n+]1C(=O)/C(=C\c1cccc(Cl)c1Cl)S2 | 35.9 | 51.5 | 41.2 | 48.7 | 21.8 | 50.9 | 30.6 | 47.1 | 41.3 | 37.8 | 45.8
OC[C@]1(n2nc3ccccc3n2)OC[C@@H]1c1ccccc1 | > 100 | 93.9 | > 100 | > 100 | > 100 | > 100 | > 100 | 69.2 | 58.2 | > 100 | > 100
O=C(Nc1cc2c(=O)oc3ccccc3c2oc1=O)c1cccnc1 | > 100 | > 100 | > 100 | > 100 | > 100 | > 100 | > 100 | > 100 | > 100 | > 100 | > 100
COC(=O)C1c2c(c3ccccc3n2C(=O)OC)CCN2CCC1C(S(=O)(=O)c1ccccc1)C2=O (configuration not stated) | > 100 | > 100 | > 100 | > 100 | > 100 | > 100 | > 100 | > 100 | > 100 | > 100 | > 100
CCN(CC)CCCn1c(=O)c2ccccc2n2c3c(=O)n(C)c(=O)n(C)c3nc12 | 23.4 | 9.08 | 24 | 15.1 | 24.1 | 30.2 | 15 | 22 | 21.9 | 35 | 4.06
COc1cc(/C=C2/SC(c3ccccc3)N(c3ccccc3)C2=O)cc(OC)c1OC (configuration not stated) | > 100 | > 100 | – | > 100 | > 100 | > 100 | > 100 | > 100 | > 100 | 42.2 | > 100
Cc1cc(-c2nc3ccccc3s2)ccc1N | > 89.3 | > 90.3 | > 87.3 | > 82.4 | > 74.3 | > 100 | > 66.8 | > 91.6 | > 61.6 | > 100 | > 71.7
Cc1nc2c(nc1C)-c1c(c3c(n1C)C(=O)CCC3)C(=O)C2=O | 0.638 | 0.508 | 3.89 | 0.286 | 1.5 | 1.88 | 0.844 | 2.51 | 1.6 | 0.524 | 2.7
CC(C)OP(=O)(OC(C)C)/C(C#N)=C/c1ccco1 | > 100 | > 100 | > 100 | > 100 | > 100 | > 100 | > 100 | > 100 | > 100 | > 100 | > 100
O=C(/C=C1\C[C@H]2C=Nc3ccccc3C(=O)N2C1)NCCCCNC(=O)/C=C1\C[C@H]2C=Nc3ccccc3C(=O)N2C1 | 9.76 | 12.6 | 31.4 | 6.4 | 29 | 33.3 | 27.1 | 30.5 | 3.57 | 4.82 | 37.5
